From PubChem BioAssay (NCI)
Several values for one entry are separate records, joined by “and”; a condition that tells them apart may be missing. Identical values can stand only once.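 1) Cells in 96-well plates. 2) Compound, 48 h, 5 concentrations. 3) Linear interpolation between surrounding doses. 4) Unreached endpoint = highest concentration. GI50: concentration for 50% inhibition of growth. At the TGI there is no net growth.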

Columns and labels:
Assay in all cases: growth of human tumour cells (NCI), 48 h
PC-3 prostate = system: PC-3 prostate
EKVX NSCLC = system: EKVX NSCLC
RXF 393 renal = system: RXF 393 renal
NCI-H226 lung = system: NCI-H226 lung
SK-MEL-28 melanoma = system: SK-MEL-28 melanoma
UACC-257 melanoma = system: UACC-257 melanoma
HCT-116 colon = system: HCT-116 colon
K-562 leukemia = system: K-562 leukemia
SF-268 CNS = system: SF-268 CNS
SNB-19 CNS = system: SNB-19 CNS

Row | Structure (SMILES) | TGI (PC-3 prostate) | TGI (EKVX NSCLC) | TGI (RXF 393 renal) | TGI (NCI-H226 lung) | TGI (SK-MEL-28 melanoma) | TGI (UACC-257 melanoma) | TGI (HCT-116 colon) | TGI (K-562 leukemia) | TGI (SF-268 CNS) | TGI (SNB-19 CNS) | GI50 (RXF 393 renal)
1 | CCCCOC(=O)C1CC[C@H]2[C@@H]3CCc4cc(OC(=O)c5cccc6c(=O)c7ccccc7[nH]c56)ccc4[C@H]3CC[C@]12C (stereo partly specified) | 15.6 µM | 8.77 µM | 17 µM | 20.6 µM | 21.2 µM | 15.3 µM | 17.1 µM | 21.4 µM | 19.6 µM |  | 
2 | Cc1ccc(C2(c3ccc(F)cc3)OC(=O)c3ccccc32)c(O)c1 (stereo unspecified) |  | 92.1 µM |  | 76.2 µM |  | 31 µM | 26.2 µM | > 100 µM | 86.7 µM | 38.1 µM | 
3 | O=C(Cn1c(C(=O)c2ccccc2)nc2ccccc21)c1ccccc1 | > 100 µM | > 100 µM | > 100 µM | > 100 µM | > 100 µM | > 100 µM | > 100 µM |  | > 100 µM | > 100 µM | 
4 | CCCCCCCCCCCCCCCCNc1ccn(C2CC(O)C(COC(c3ccccc3)(c3ccccc3)c3ccc(OC)cc3)O2)c(=O)n1 (stereo unspecified) | > 100 µM | > 100 µM | > 100 µM | > 100 µM | > 100 µM |  | > 100 µM | > 100 µM | > 100 µM | > 100 µM | 
5 | CNc1ncnc2c1nc(NC1CCCC1)n2C1OC(CO)C(O)C1O (stereo unspecified) | > 100 µM |  | > 100 µM |  | > 100 µM |  | > 100 µM |  | > 100 µM | > 100 µM | 
6 | Cc1c2c(n(CC(c3ccccc3)c3ccccc3)c1C)NN=C(C#N)S2(=O)=O | > 100 µM | > 100 µM |  | > 100 µM | > 100 µM | > 100 µM | > 100 µM |  | > 100 µM | > 100 µM | 
7 | C/C(=N\Nc1nc2ccccc2s1)c1cc2ccccc2cn1 | > 100 µM | 69.4 µM | 16 µM | 7.56 µM | > 100 µM | 57.8 µM | 10.6 µM |  | > 100 µM | > 100 µM | 
8 | [N-]=[N+]=CC(=O)OCCCCl | > 100 µM | > 100 µM | > 100 µM | > 100 µM | > 100 µM | > 100 µM | > 100 µM |  | > 100 µM | > 100 µM | 
9 | O=C(O)[C@H](CCC[C@H]1C(=O)O[C@H](c2ccccc2)[C@H](c2ccccc2)N1C(=O)OCc1ccccc1)N[C@@H](c1ccccc1)[C@H](O)c1ccccc1 | > 100 µM | > 100 µM | 47.9 µM |  | 39 µM | > 100 µM | 44.9 µM | > 100 µM | > 100 µM | 61.3 µM | 
10 | C=C=CC(NC(=O)c1ccccc1)(C(=O)O)C(F)(F)F (stereo unspecified) |  | > 100 µM | > 100 µM | > 100 µM | > 100 µM | > 100 µM | > 100 µM | > 100 µM | > 100 µM | > 100 µM | 
11 | O=C(O)/C=C/c1c[nH]c(=O)[nH]c1=O |  | > 500 µM | > 500 µM | > 500 µM | > 500 µM | > 500 µM | > 500 µM | > 500 µM | > 500 µM | > 500 µM | > 500 µM
12 | COc1nc2ccc(COc3ccc(C(=O)O)cc3)cc2nc1OC | > 100 µM | > 100 µM |  | > 100 µM | > 100 µM | > 100 µM | > 100 µM | > 100 µM | > 100 µM | > 100 µM | 
13 | CCC(C)C1=C(O)[N+]2([O-])Oc3ccc(-c4c(O)c(O)c(-c5ccc(OC(C)=O)cc5)c(OC(C)=O)c4OC(C)=O)cc3OC2(C(C)CC)C(=O)N1O (stereo unspecified) | > 50 µM | > 50 µM | > 50 µM |  | > 50 µM | > 50 µM |  | 49.1 µM and > 50 µM | > 50 µM | > 50 µM | 
14 | CC1OC2OC3C(OCC(O)C3O)OC(=O)[C@]34CCC(C)(C)CC3C3=CCC5[C@@]6(C)C[C@H](O)[C@H](OC7OC(CO)C(O)C(O)C7OC7OCC(OC(=O)CC(C)(O)CC(=O)OC1C(O)C2O)C(O)C7O)[C@@](C)(CO)C6CC[C@@]5(C)[C@]3(C)CC4 (stereo partly specified) | 6.72 µM |  |  | 35.9 µM | 4.97 µM | 6.69 µM | 17.4 µM |  | 9.2 µM | 21.3 µM | 
15 | COc1cc2c(/C=C3/C(=O)N(C)c4ccc(O)cc43)c(Cl)[nH]c2cc1C | 20.8 µM | 23.9 µM | 23.3 µM | 16.2 µM | 15.4 µM | 23.5 µM |  | 11.7 µM | 25.3 µM | 5.35 µM | 
16 | O=C1CSC(c2cccc(Cl)c2)N1c1ccc(-c2ccc(-n3c(-c4ccccc4)nc4ccccc4c3=O)cc2)cc1 (stereo unspecified) | > 100 µM | > 100 µM |  | > 100 µM | > 100 µM | > 100 µM | > 100 µM | > 100 µM | > 100 µM | > 100 µM | 
